Measurements reported in BindingDB's records for doi:10.1021/jm960063l (Institute, 1996).
pKi: −log10 of the molar value.

What was measured:
[1] = Inhibition of [3H]- RTX binding to Vanilloid receptors from pig spinal cord
[2] = Inhibitory constant for RTX binding to porcine spinal cord

## COc1cc(CC(=O)OCC2=C[C@H]3C4C(C)(C)[C@]4(OC(C)=O)[C@H](OC(=O)Cc4ccccc4)[C@@H](C)[C@]3(O)[C@@H]3C=C(C)C(=O)[C@@]3(O)C2)ccc1O (stereo partly drawn) [Phenyl-acetic acid (1aR,1bS,4aR,7aS,7bS,8R,9R,9aS)-9a-acetoxy-4a,7b-dihydroxy-3-[2-(4-hydroxy-3-methoxy-phenyl)-acetoxymethyl]-1,1,6,8-tetramethyl-5-oxo-1a,1b,4,4a,5,7a,7b,8,9,9a-decahydro-1H-cyclopropa[3,4]benzo[1,2-e]azulen-9-yl ester]
[1]
  pKi: 5.68
[2]
  pKi: 9.92
